target: D2 receptor (Homo sapiens, UniProt P14416); test: [3H]Thymidine uptake assay for D2 intrinsic activity; format: cell-based; details: Table 1; test compound 1 μM; 1 μM Quinpirole = 100% intrinsic activity
Sequence (P14416 whole entry): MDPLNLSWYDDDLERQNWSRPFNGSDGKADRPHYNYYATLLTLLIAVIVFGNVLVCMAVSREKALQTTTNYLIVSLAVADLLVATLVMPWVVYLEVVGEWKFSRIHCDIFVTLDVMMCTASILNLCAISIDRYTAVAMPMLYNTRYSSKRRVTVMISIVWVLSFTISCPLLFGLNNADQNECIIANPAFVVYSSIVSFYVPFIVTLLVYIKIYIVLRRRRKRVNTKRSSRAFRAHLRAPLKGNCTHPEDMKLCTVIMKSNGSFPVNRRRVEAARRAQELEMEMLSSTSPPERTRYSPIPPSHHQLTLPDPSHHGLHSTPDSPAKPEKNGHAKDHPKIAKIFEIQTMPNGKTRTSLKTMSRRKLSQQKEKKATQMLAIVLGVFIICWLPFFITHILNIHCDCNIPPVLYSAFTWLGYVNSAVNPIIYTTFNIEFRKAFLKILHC

SMILES | Emax at 1 µM
CC(C)Oc1ccccc1N1CCN(CCCCOc2ccc3c(n2)NC(=O)CC3(C)C)CC1 [Example D25, 7-{4-[4-(2-Isopropoxy-phenyl)-piperazin-1-yl]-butoxy}-4,4-dimethyl-3,4-dihydro-1H-[1,8]naphthyridin-2-one] | 31%
O=C1CCc2cc(F)c(OCCCCN3CCN(c4cccc(Cl)c4Cl)CC3)nc2N1 [Example E3, 7-{4-[4-(2,3-Dichloro-phenyl)-piperazin-1-yl]-butoxy}-6-fluoro-3,4-dihydro-1H-[1,8]naphthyridin-2-one] | 31%
O=C1CCc2cc(F)c(OCCCCN3CCN(c4cccc5ccccc45)CC3)nc2N1 [Example E4, 6-Fluoro-7-[4-(4-naphthalen-1-yl-piperazin-1-yl)-butoxy]-3,4-dihydro-1H-[1,8]naphthyridin-2-one] | 38%
O=C1CCc2cc(F)c(OCCCCN3CCN(c4cccc5c4CCC5)CC3)nc2N1 [Example E5, 6-Fluoro-7-[4-(4-indan-4-yl-piperazin-1-yl)-butoxy]-3,4-dihydro-1H-[1,8]naphthyridin-2-one] | 21%
O=C1CCc2cc(Cl)c(OCCCCN3CCN(c4cccc5ccccc45)CC3)nc2N1 [Example E6, 6-Chloro-7-[4-(4-naphthalen-1-yl-piperazin-1-yl)-butoxy]-3,4-dihydro-1H-[1,8]naphthyridin-2-one] | 32%
O=C1CCc2cc(Br)c(OCCCCN3CCN(c4cccc(Cl)c4Cl)CC3)nc2N1 [Example E7, 6-Bromo-7-{4-[4-(2,3-dichloro-phenyl)-piperazin-1-yl]-butoxy}-3,4-dihydro-1H-[1,8]naphthyridin-2-one] | 19%
O=C1CCc2cc(Br)c(OCCCCN3CCN(c4cccc5ccccc45)CC3)nc2N1 [Example E8, 6-Bromo-7-[4-(4-naphthalen-1-yl-piperazin-1-yl)-butoxy]-3,4-dihydro-1H-[1,8]naphthyridin-2-one] | 26%
Cc1cc(OCCCCN2CCN(c3cccc(Cl)c3Cl)CC2)nc2c1CCC(=O)N2 [Example E9, 7-{4-[4-(2,3-Dichloro-phenyl)-piperazin-1-yl]-butoxy}-5-methyl-3,4-dihydro-1H-[1,8]naphthyridin-2-one] | 34%
Cc1cc(OCCCCN2CCN(c3cccc4ccccc34)CC2)nc2c1CCC(=O)N2 [Example E10, 5-Methyl-7-[4-(4-naphthalen-1-yl-piperazin-1-yl)-butoxy]-3,4-dihydro-1H-[1,8]naphthyridin-2-one] | 31%
Cc1cc(OCCCCN2CCN(c3cccc4c3CCCC4)CC2)nc2c1CCC(=O)N2 [Example E11, 5-Methyl-7-{4-[4-(5,6,7,8-tetrahydro-naphthalen-1-yl)-piperazin-1-yl]-butoxy}-3,4-dihydro-1H-[1,8]naphthyridin-2-one] | 19%
Cc1cc(OCCCCN2CCN(c3cccc4c3CCC4)CC2)nc2c1CCC(=O)N2 [Example E12, 7-[4-(4-Indan-4-yl-piperazin-1-yl)-butoxy]-5-methyl-3,4-dihydro-1H-[1,8]naphthyridin-2-one] | 39%

same assay, conditions: Table 2; test compound 1 μM; 1 μM Quinpirole = 100% intrinsic activity

SMILES | Emax at 1 µM
O=c1ncc2ccc(OCCCCN3CCN(c4cccc5c4OCCC5)CC3)nc2[nH]1 [Example E1′, 7-[4-(4-Chroman-8-yl-piperazin-1-yl)-butoxy]-1H-pyrido[2,3-d]pyrimidin-2-one] | 12%
O=C1NCc2ccc(OCCCCN3CCN(c4cccc5c4OCCC5)CC3)nc2N1 [Example E2′, 7-[4-(4-Chroman-8-yl-piperazin-1-yl)-butoxy]-3,4-dihydro-1H-pyrido[2,3-d]pyrimidin-2-one] | 9%
O=C1NCc2ccc(OCCCCN3CCN(c4cccc5c4OCC5)CC3)nc2N1 [Example E3′, 7-{4-[4-(2,3-Dihydro-benzofuran-7-yl)-piperazin-1-yl]-butoxy}-3,4-dihydro-1H-pyrido[2,3-d]pyrimidin-2-one] | 8%
O=C1NCc2ccc(OCCCCN3CCN(c4cccc5c4OCCCO5)CC3)nc2N1 [Example E4′, 7-{4-[4-(3,4-Dihydro-2H-benzo[b][1,4]dioxepin-6-yl)-piperazin-1-yl]-butoxy}-3,4-dihydro-1H-pyrido[2,3-d]pyrimidin-2-one] | 26%
